The record followed here is US20250186433A1, “ACSS2 INHIBITORS AND METHODS OF USE THEREOF” (EpiVario, Inc., priority 2017, published 2025).

The target of the assay is ACSS2 (Homo sapiens, UniProt Q9NR19). As to the kind of experiment: biochemical.
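Also: Pyrophosphatase-coupled ACSS2 enzyme assay, 10 nM protein incubated 90 min at 37 °C with ATP, CoA and acetate, released phosphate read by Biomol Green absorbance at 620 nm.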

Chain of ACSS2 (Q9NR19 whole entry): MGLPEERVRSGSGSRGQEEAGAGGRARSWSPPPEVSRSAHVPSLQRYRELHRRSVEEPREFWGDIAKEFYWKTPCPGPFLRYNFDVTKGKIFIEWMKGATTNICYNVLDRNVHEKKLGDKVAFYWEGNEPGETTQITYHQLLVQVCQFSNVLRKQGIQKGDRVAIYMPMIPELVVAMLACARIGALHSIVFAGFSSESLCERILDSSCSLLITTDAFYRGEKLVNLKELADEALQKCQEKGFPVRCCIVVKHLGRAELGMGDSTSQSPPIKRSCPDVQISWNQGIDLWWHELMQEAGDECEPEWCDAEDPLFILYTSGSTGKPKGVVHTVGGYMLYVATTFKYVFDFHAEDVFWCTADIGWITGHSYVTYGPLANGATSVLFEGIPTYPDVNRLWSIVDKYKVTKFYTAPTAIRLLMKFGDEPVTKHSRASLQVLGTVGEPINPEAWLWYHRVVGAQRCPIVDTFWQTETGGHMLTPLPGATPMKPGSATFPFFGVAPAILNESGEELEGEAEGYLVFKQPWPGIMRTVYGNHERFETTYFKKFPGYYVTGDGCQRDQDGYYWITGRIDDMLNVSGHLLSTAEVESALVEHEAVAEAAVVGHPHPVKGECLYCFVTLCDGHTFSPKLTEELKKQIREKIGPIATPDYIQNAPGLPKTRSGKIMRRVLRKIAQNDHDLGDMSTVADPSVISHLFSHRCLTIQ
Procedure: The assay is based on a coupling reaction with Pyrophosphatase: ACSS2 is converting ATP+CoA+Acetate=>AMP+pyrophosphate+Acetyl-CoA (Ac-CoA). Pyrophosphatase converts pyrophosphate, a product of the ACSS2 reaction, to phosphate which can be detected by measuring the absorbance at 620 nm after incubation with the Biomol green reagent (Enzo life Science, BML-AK111).
At the end of the reaction, Biomol Green was added for 30 minutes at RT and the activity was measured by reading the absorbance at 620 nm.

The IC50 is the midpoint of a concentration-inhibition curve. Low values mean inhibition by little substance, high ones a need for much substance. For `CCC(F)(F)c1cccc(NC(=O)C2C(=O)N(c3ccc4ccn(CCc5ccccc5)c4c3)N=C2C)c1` (stereo not drawn) [compound 477, N-[3-(1,1-difluoropropyl)phenyl]-3-methyl-5-oxo-1-[1-(2-phenylethyl)indol-6-yl]-4H-pyrazole-4-carboxamide], the IC50 was 6 to 100 nM.

With `CCC(F)(F)c1cccc(NC(=O)C2C(=O)N(c3ccc4ccoc4c3)N=C2C)c1` (stereo not drawn) [compound 491, 1-(benzofuran-6-yl)-N-(3-(1,1-difluoropropyl)phenyl)-3-methyl-5-oxo-4,5-dihydro-1H-pyrazole-4-carboxamide], the IC50 was 0.01 to 6 nM.

Compound `CCC(F)(F)c1cccc(NC(=O)C2C(=O)N(c3ccc(OC)c(-c4ncccc4C)c3)N=C2C)c1` (stereo not drawn) [compound 535, N-(3-(1,1-difluoropropyl)phenyl)-1-(4-methoxy-3-(3-methylpyridin-2-yl)phenyl)-3-methyl-5-oxo-4,5-dihydro-1H-pyrazole-4-carboxamide] showed an IC50 of 0.01 to 6 nM.

`CC1=NN(c2cc(Br)cc(I)c2)C(=O)C1C(=O)Nc1cccc(C(C)(F)F)c1` (stereo not drawn) [compound 468]: the IC50 was in the range of 0.01 to 6 nM.

The compound `CCC(F)(F)c1cccc(NC(=O)C2C(=O)N(c3ccc(OC)c(-c4ccnc(C)c4)c3)N=C2C)c1` (stereo not drawn) [compound 530, N-(3-(1,1-difluoropropyl)phenyl)-1-(4-methoxy-3-(2-methylpyridin-4-yl)phenyl)-3-methyl-5-oxo-4,5-dihydro-1H-pyrazole-4-carboxamide] showed an IC50 of 0.01 to 6 nM.

Regarding `CCC(F)(F)c1cccc(NC(=O)C2C(=O)N(c3ccc4ccn(-c5ccccc5)c4c3)N=C2C)c1` (stereo not drawn) [compound 472, N-[3-(1,1-difluoropropyl)phenyl]-3-methyl-5-oxo-1-(1-phenylindol-6-yl)-4H-pyrazole-4-carboxamide], the IC50 is 0.01 to 6 nM.

Compound `CCC(F)(F)c1cccc(NC(=O)C2C(=O)N(c3cc4[nH]ccc4cn3)N=C2C)c1` (stereo not drawn) [compound 507, N-(3-(1,1-difluoropropyl)phenyl)-3-methyl-5-oxo-1-(1H-pyrrolo[3,2-c]pyridin-6-yl)-4,5-dihydro-1H-pyrazole-4-carboxamide] gave an IC50 of 0.01 to 6 nM.

`CCC(F)(F)c1cccc(NC(=O)C2C(=O)N(c3ccc4ccn(C(=O)c5ccccc5C)c4c3)N=C2C)c1` (stereo not drawn) [compound 479]: the IC50 fell in the range of 0.01 to 6 nM.

Turning to `CC(F)(F)c1cccc(NC(=O)C2C(=O)N(c3ccc(OC(F)F)cc3)N=C2CS)c1` (stereo not drawn) [compound 339], the IC50 was 100 to 1000 nM.

In turn, `CCC(F)(F)c1cccc(NC(=O)C2C(=O)N(c3ccc4c(C)cn(C)c4c3)N=C2C)c1` (stereo not drawn) [compound 497, N-(3-(1,1-difluoropropyl)phenyl)-1-(1,3-dimethyl-1H-indol-6-yl)-3-methyl-5-oxo-4,5-dihydro-1H-pyrazole-4-carboxamide] registered an IC50 of 0.01 to 6 nM.

Take `CC1=NN(c2cc(-c3cccnc3)cc(-c3cccc4[nH]ccc34)c2)C(=O)C1C(=O)Nc1cccc(C(C)(F)F)c1` (stereo not drawn) [compound 465]: the IC50 was in the range of 6 to 100 nM.

As for `CCC(F)(F)c1cccc(NC(=O)C2C(=O)N(c3ccc(OC)cc3F)N=C2C)c1` (stereo not drawn) [compound 505, N-(3-(1,1-difluoropropyl)phenyl)-1-(2-fluoro-4-methoxyphenyl)-3-methyl-5-oxo-4,5-dihydro-1H-pyrazole-4-carboxamide], the IC50 lay in the range of 0.01 to 6 nM.

On to `CCC(F)(F)c1cccc(NC(=O)C2C(=O)N(c3ccc4cn[nH]c4c3)N=C2C)c1` (stereo not drawn) [compound 499, N-[3-(1,1-difluoropropyl)phenyl]-1-(1H-indazol-6-yl)-3-methyl-5-oxo-4H-pyrazole-4-carboxamide], for which the IC50 lay in the range of 0.01 to 6 nM.

`CCC(F)(F)c1cccc(NC(=O)C2C(=O)N(c3ccc4ccn(C(=O)c5ccccc5)c4c3)N=C2C)c1` (stereo not drawn) [compound 475, 1-(1-benzoylindol-6-yl)-N-[3-(1,1-difluoropropyl)phenyl]-3-methyl-5-oxo-4H-pyrazole-4-carboxamide] yielded an IC50 of 0.01 to 6 nM.

`CCC(F)(F)c1cccc(NC(=O)C2C(=O)N(c3ccc(OC)c(-c4ccccc4)n3)N=C2C)c1` (stereo not drawn) [compound 498, N-(3-(1,1-difluoropropyl)phenyl)-1-(5-methoxy-6-phenylpyridin-2-yl)-3-methyl-5-oxo-4,5-dihydro-1H-pyrazole-4-carboxamide] registered an IC50 of 0.01 to 6 nM.

For `CCC(F)(F)c1cccc(NC(=O)C2C(=O)N(c3cccc4occc34)N=C2C)c1` (stereo not drawn) [compound 492, 1-(benzofuran-4-yl)-N-(3-(1,1-difluoropropyl)phenyl)-3-methyl-5-oxo-4,5-dihydro-1H-pyrazole-4-carboxamide], the IC50 lay in the range of 0.01 to 6 nM.

The compound `C/C=C(\F)c1cccc(NC(=O)C2C(=O)N(c3ccc(OC(F)F)cc3)N=C2C)c1` (stereo not drawn) [compound 494, (Z)-1-(4-(difluoromethoxy)phenyl)-N-(3-(1-fluoroprop-1-en-1-yl)phenyl)-3-methyl-5-oxo-4,5-dihydro-1H-pyrazole-4-carboxamide] came in with an IC50 of 0.01 to 6 nM.

`COc1ccccc1Cc1cc(-c2cccnc2)cc(N2N=C(C)C(C(=O)Nc3cccc(C(C)(F)F)c3)C2=O)c1` (stereo not drawn) [compound 466] showed an IC50 of 6 to 100 nM.

Compound `CCC(F)(F)c1cccc(NC(=O)C2C(=O)N(c3ccc4ccn(Cc5ccccc5)c4c3)N=C2C)c1` (stereo not drawn) [compound 463, 1-(1-benzylindol-6-yl)-N-[3-(1,1-difluoropropyl)phenyl]-3-methyl-5-oxo-4H-pyrazole-4-carboxamide] came in with a 50% inhibitory concentration (IC50) of 0.01 to 6 nM.

In turn, `CCC(F)(F)c1cccc(NC(=O)C2C(=O)N(c3ccc(OC)cc3C(C)=O)N=C2C)c1` (stereo not drawn) [compound 516, 1-(2-acetyl-4-methoxyphenyl)-N-(3-(1,1-difluoropropyl)phenyl)-3-methyl-5-oxo-4,5-dihydro-1H-pyrazole-4-carboxamide] had an IC50 of 6 to 100 nM.

In turn, `CCC(F)(F)c1cccc(NC(=O)C2C(=O)N(c3ccc(OC)c(-c4cc(C)nc(C)c4)c3)N=C2C)c1` (stereo not drawn) [compound 531, N-(3-(1,1-difluoropropyl)phenyl)-1-(3-(2,6-dimethylpyridin-4-yl)-4-methoxyphenyl)-3-methyl-5-oxo-4,5-dihydro-1H-pyrazole-4-carboxamide] came in with a concentration for half-maximal inhibition (IC50) of 0.01 to 6 nM.

Take `CCC(F)(F)c1cccc(NC(=O)C2C(=O)N(c3ccc4cccnc4c3)N=C2C)c1` (stereo not drawn) [compound 474, N-(3-(1,1-difluoropropyl)phenyl)-3-methyl-5-oxo-1-(quinolin-7-yl)-4,5-dihydro-1H-pyrazole-4-carboxamide]: the IC50 is 0.01 to 6 nM.

Take `CCC(F)(F)c1cccc(NC(=O)C2C(=O)N(c3ccc(OC)c(-c4cccc(C)n4)c3)N=C2C)c1` (stereo not drawn) [compound 536, N-(3-(1,1-difluoropropyl)phenyl)-1-(4-methoxy-3-(6-methylpyridin-2-yl)phenyl)-3-methyl-5-oxo-4,5-dihydro-1H-pyrazole-4-carboxamide]: the half-maximal inhibitory concentration (IC50) was in the range of 0.01 to 6 nM.

Regarding `CCC(F)(F)c1cccc(NC(=O)C2C(=O)N(c3ccc(Cl)nn3)N=C2C)c1` (stereo not drawn) [compound 490, 1-(6-chloropyridazin-3-yl)-N-(3-(1,1-difluoropropyl)phenyl)-3-methyl-5-oxo-4,5-dihydro-1H-pyrazole-4-carboxamide], the IC50 lay in the range of 6 to 100 nM.

For `CCC(F)(F)c1cccc(NC(=O)C2C(=O)N(c3ccc4ccn(C(=O)c5cccc(C)c5)c4c3)N=C2C)c1` (stereo not drawn) [compound 483, N-[3-(1,1-difluoropropyl)phenyl]-3-methyl-1-[1-(3-methylbenzoyl)indol-6-yl]-5-oxo-4H-pyrazole-4-carboxamide], the IC50 fell in the range of 6 to 100 nM.

For `CCC(F)(F)c1cccc(NC(=O)C2C(=O)N(c3ccc(OC)c(-c4ccncc4C)c3)N=C2C)c1` (stereo not drawn) [compound 532, N-(3-(1,1-difluoropropyl)phenyl)-1-(4-methoxy-3-(3-methylpyridin-4-yl)phenyl)-3-methyl-5-oxo-4,5-dihydro-1H-pyrazole-4-carboxamide], the IC50 fell in the range of 0.01 to 6 nM.

In the case of `CC1=NN(c2ccc(OC(F)F)cc2)C(=O)C1C(=O)Nc1ccnc(C#N)c1` (stereo not drawn) [compound 504, N-(2-cyanopyridin-4-yl)-1-(4-(difluoromethoxy)phenyl)-3-methyl-5-oxo-4,5-dihydro-1H-pyrazole-4-carboxamide], the IC50 was 100 to 1000 nM.

On to `CCC(F)(F)c1cncc(NC(=O)C2C(=O)N(c3ccc(OC(F)F)cc3)N=C2C)c1` (stereo not drawn) [compound 511, 1-(4-(difluoromethoxy)phenyl)-N-(5-(1,1-difluoropropyl)pyridin-3-yl)-3-methyl-5-oxo-4,5-dihydro-1H-pyrazole-4-carboxamide], for which the 50% inhibitory concentration (IC50) was 0.01 to 6 nM.

Consider `CCC(F)(F)c1ccnc(NC(=O)C2C(=O)N(c3ccc(OC(F)F)cc3)N=C2C)c1` (stereo not drawn) [compound 484, 1-(4-(difluoromethoxy)phenyl)-N-(4-(1,1-difluoropropyl)pyridin-2-yl)-3-methyl-5-oxo-4,5-dihydro-1H-pyrazole-4-carboxamide], for which the IC50 was 6 to 100 nM.

In the case of `C/C=C(/F)c1cccc(NC(=O)C2C(=O)N(c3ccc(OC(F)F)cc3)N=C2C)c1` (stereo not drawn) [compound 495, (E)-1-(4-(difluoromethoxy)phenyl)-N-(3-(1-fluoroprop-1-en-1-yl)phenyl)-3-methyl-5-oxo-4,5-dihydro-1H-pyrazole-4-carboxamide], the IC50 lay within 0.01 to 6 nM.
